Values quoted from earlier work as cited in PubChem BioAssay AID1259409 (Chemical Carcinogenesis Research Information System (CCRIS), 2018).
Where “and” joins values, the source holds several entries; their conditions need not be identical. Equal values may be shown once.

System: rodent chemically induced tumor inhibition, incidence and multiplicity
Experiment: CCRIS tumor inhibitor studies
Conditions: Route [Inhibitor]: ORAL, Species: RAT

CC1=C(/C=C/C(C)=C/C=C/C(C)=C/C(=O)Nc2ccc(O)cc2)C(C)(C)CCC1
tumour outcome (control, treated, inhibition, significance) (Carcinogen: N-METHYL-N'-NITROSOUREA, 684-93-5, Dose [Inhibitor]: 0, 782 MG/KG IN DIET FOR DURATION OF STUDY BEGINNING 60 D PRIOR TO CARCINOGEN DOSE (STUDY DURATION: 240 D), Strain/Sex: SPRAGUE-DAWLEY/FEMALE, Target Tissue: Type of Lesion: MAMMARY GLAND: TUMOR, Dose [Carcinogen]: 50 MG/KG BW ONCE, Promoter: NONE USED): 80%, 28%, 65%, p<0.oo5 and 68%, 42%, 38%, p<0.005 | tumour outcome (control, treated, inhibition, significance) (Carcinogen: N-METHYL-N-NITROSOUREA [684-93-5], Dose [Inhibitor]: 2 MMOL/KG IN DIET FOR 6 WK BEGINNING 4 WK POST LAST CARCINOGEN DOSE (STUDY DURATION: 11 WK), Strain/Sex: SPRAGUE-DAWLEY/FEMALE, Target Tissue: Type of Lesion: MAMMARY GLAND: CARCINOMA, Dose [Carcinogen]: 50 MG/KG BW IP 1X/WK FOR 2 WK (STUDY DURATION: 11 WK), Promoter: NONE): 95.4%, 87.5%, 8.3% | tumour outcome (control, treated, inhibition, significance) (Carcinogen: N-METHYL-N-NITROSOUREA [684-93-5], Dose [Inhibitor]: 2 MMOL/KG IN DIET FOR 10 WK BEGINNING 2 D POST LAST CARCINOGEN DOSE (STUDY DURATION: 11 WK), Strain/Sex: SPRAGUE-DAWLEY/FEMALE, Target Tissue: Type of Lesion: MAMMARY GLAND: CARCINOMA, Dose [Carcinogen]: 50 MG/KG BW IP 1X/WK FOR 2 WK (STUDY DURATION: 11 WK), Promoter: NONE): 95.4%, 45.0%, 53%, p<0.05 | tumour outcome (control, treated, inhibition, significance) (Carcinogen: N-METHYL-N-NITROSOUREA [684-93-5], Dose [Inhibitor]: 196 MG/KG DIET BEGINNING 7 D PRIOR TO CARCINOGEN DOSE (STUDY DURATION: 187 D), Strain/Sex: SPRAGUE-DAWLEY/FEMALE, Target Tissue: Type of Lesion: MAMMARY GLAND: ADENOCARCINOMA, Dose [Carcinogen]: 50 MG/KG BW ONCE AT 100 D OF AGE): 23/40 (57%), 17/40 (43%), 24.6%,p<0.01 | tumour outcome (control, treated, inhibition, significance) (Carcinogen: N-METHYL-N-NITROSOUREA [684-93-5], Dose [Inhibitor]: 586 MG/KG DIET BEGINNING 3 D POST-CARCINOGEN DOSE (STUDY DURATION: 150 D), Strain/Sex: SPRAGUE-DAWLEY/FEMALE, Target Tissue: Type of Lesion: MAMMARY GLAND: ADENOCARCINOMA, Dose [Carcinogen]: 50 MG/KG BW ONCE AT 50 D OF AGE): 25/25 (100%), 24/25 (96%), 4%, not significant | tumour outcome (control, treated, inhibition, significance) (Carcinogen: N-METHYL-N-NITROSOUREA, 684-93-5, Dose [Inhibitor]: 0, 1 MMOL/KG IN DIET FOR 7 MO BEGINNING 7 MO POST CARCINOGEN DOSE (STUDY DURATION: 14 MO), Strain/Sex: LOBUND WISTAR/MALE, Target Tissue: Type of Lesion: PROSTATE: ADENOCARCINOMA, Dose [Carcinogen]: 30 MG/KG BW ONCE, Promoter: TESTOSTERONE PROPIONATE, 57-85-2): 16/18 (89%), 4/19 (21%), 76%, p<0.001 | tumour outcome (control, treated, inhibition, significance) (Carcinogen: N-METHYL-N-NITROSOUREA, 684-93-5, Dose [Inhibitor]: 0, 328 MG/KG OF DIET FOR DURATION OF STUDY BEGINNING 1 WK PRIOR TO CARCINOGEN TREATMENT (STUDY DURATION: 117 D), Strain/Sex: SPRAGUE-DAWLEY/FEMALE, Target Tissue: Type of Lesion: MAMMARY GLAND: ADENOCARCINOMA, Dose [Carcinogen]: 50 MG/KG BW ONCE, Promoter: NONE USED): 100%, 84%, 16%, not significant | tumour outcome (control, treated, inhibition, significance) (Carcinogen: N-METHYL-N-NITROSOUREA, 684-93-5, Dose [Inhibitor]: 0, 391 MG/KG DIET BEGINNING AFTER THE SURGICAL REMOVAL OF THE FIRST PALPABLE TUMOR (STUDY DURATION: LIFETIME), Strain/Sex: SPRAGUE-DAWLEY/FEMALE, Target Tissue: Type of Lesion: MAMMARY GLAND: TUMOR, Dose [Carcinogen]: 35 MG/KG ONCE AT 50 DAYS OF AGE, Promoter: NONE USED): 93%, 95%, -2%, not calculated | tumour outcome (control, treated, inhibition, significance) (Carcinogen: N-METHYL-N-NITROSOUREA, 684-93-5, Dose [Inhibitor]: 0, 782 MG/KG DIET BEGINNING AFTER THE SURGICAL REMOVAL OF THE FIRST PALPABLE TUMOR (STUDY DURATION: LIFETIME), Strain/Sex: SPRAGUE-DAWLEY/FEMALE, Target Tissue: Type of Lesion: MAMMARY GLAND: TUMOR, Dose [Carcinogen]: 35 MG/KG ONCE AT 50 DAYS OF AGE, Promoter: NONE USED): 93%, 89%, 4%, not calculated | tumour outcome (control, treated, inhibition, significance) (Carcinogen: N-METHYL-N-NITROSOUREA, 684-93-5, Dose [Inhibitor]: 0, 782 MG/KG DIET REDUCED TO 391 MG/KG DIET 2 WK POST CARCINOGEN DOSE (STUDY DURATION: 450 D), Strain/Sex: WISTAR-UNILEVER/MALE, Target Tissue: Type of Lesion: PROSTATE/SEMINAL VESICLE: ADENOCARCINOMA, Dose [Carcinogen]: 50 MG/KG BW ONCE, Promoter: TESTOSTERONE PROPIONATE, 57-85-2): 67%, 62%, 7%, not significant | tumour outcome (control, treated, inhibition, significance) (Carcinogen: N-METHYL-N-NITROSOUREA, 684-93-5, Dose [Inhibitor]: 0, 782 MG/KG OF CASEIN-BASED AIN-76A DIET FOR DURATION OF STUDY BEGINNING 7 D POST CARCINOGEN DOSE (STUDY DURATION: 25 W, Strain/Sex: F344/FEMALE, Target Tissue: Type of Lesion: MAMMARY GLAND: TUMOR, Dose [Carcinogen]: 45 MG/KG BW ONCE AT 5O D OF AGE, Promoter: NONE USED): 18/25 (72%), 20/25 (80%), -11%, not significant | tumour outcome (control, treated, inhibition, significance) (Carcinogen: N-METHYL-N-NITROSOUREA, 684-93-5, Dose [Inhibitor]: 0, 782 MG/KG OF DIET FOR DURATION OF STUDY BEGINNING 1 WK PRIOR TO CARCINOGEN TREATMENT (STUDY DURATION: 117 D), Strain/Sex: SPRAGUE-DAWLEY/FEMALE, Target Tissue: Type of Lesion: MAMMARY GLAND: ADENOCARCINOMA, Dose [Carcinogen]: 50 MG/KG BW ONCE, Promoter: NONE USED): 100%, 42%, 58%, not calculated | tumour outcome (control, treated, inhibition, significance) (Carcinogen: N-METHYL-N-NITROSOUREA, 684-93-5, Dose [Inhibitor]: 0, 782 MG/KG OF GRAIN-BASED NIH-07 DIET FOR DURATION OF STUDY BEGINNING 7 D PRIOR TO CARCINOGEN DOSE (STUDY DURATION: 26, Strain/Sex: F344/FEMALE, Target Tissue: Type of Lesion: MAMMARY GLAND: TUMOR, Dose [Carcinogen]: 45 MG/KG BW ONCE AT 50 D OF AGE, Promoter: NONE USED): 13/25 (52%), 7/25 (28%), 46%, not significant
